Measured values published in paper PMC5247774 (Bioconjugate Chemistry, 2016).

Biological target: T1, SERPINB3 (SB3) (Homo sapiens, UniProt P29508)
T1 sequence (P29508 1-390): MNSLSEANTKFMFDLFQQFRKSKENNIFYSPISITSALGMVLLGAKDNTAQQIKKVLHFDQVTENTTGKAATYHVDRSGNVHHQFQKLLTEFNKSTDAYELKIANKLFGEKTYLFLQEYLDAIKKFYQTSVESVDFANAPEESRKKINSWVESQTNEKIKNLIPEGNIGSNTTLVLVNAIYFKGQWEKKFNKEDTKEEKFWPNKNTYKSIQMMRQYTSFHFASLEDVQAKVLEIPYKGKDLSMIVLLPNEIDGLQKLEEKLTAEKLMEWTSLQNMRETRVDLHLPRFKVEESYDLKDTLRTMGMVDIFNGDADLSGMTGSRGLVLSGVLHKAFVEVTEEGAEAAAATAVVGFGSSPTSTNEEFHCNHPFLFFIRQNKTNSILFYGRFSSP
Format: binding
Details: SPR, increasing concentrations

CPNFDWDPNNSNAGFAPDLQHDPFFGLP [CysPreS1]
interaction with SB3 (in words): did not reveal any interaction
